Laboratory results reported in patent US4606857A, “Muramyldipeptide derivatives” (priority 1982, dated 1986).

Assays:
Type in all cases: in vivo
[1] = system: delayed-type hypersensitivity to N-acetyltyrosine-3-azobenzene-4'-arsonic acid (ABA-N-Ac-Tyr); experiment: Adjuvant activity: enhancement of induction of delayed-type hypersensitivity (skin reaction); conditions: guinea pig, 100 μg/animal compound with 50 μg ABA-N-Ac-Tyr in FIA into soles, 100 μg ABA-BSA intradermal two weeks later, mean ± SE; for Skin Reaction 24 Hours (diameter of erythema and induration): read 24 hours after injection; for Skin Reaction 48 Hours (diameter of erythema and induration): read 48 hours after injection
Procedure: The adjuvant activity was confirmed by the enhancing activity on the induction of delayed-type hypersensitivity to N-acetyltyrosine-3-azobenzene-4'-arsonic acid (hereinafter referred to as ABA-N-Ac-Tyr) in guinea pig.
That is, a water-in-oil emulsion prepared by mixing 50 μg/animal of ABA-N-Ac-Tyr and 100 μg/animal of each of the compounds of the present invention with Freund's incomplete adjuvant (hereinafter referred to as FIA) was administered to the soles of guinea pigs. Two weeks later, 100 μg of 3-azobenzene-4'-arsonic acid bonded to bovine serum albumin (hereinafter referred to as ABA-BSA) was intradermally injected and the diameter of skin reaction (i.e., erythema and induration) was measured 24 hours and 48 hours after the injection. The diameter of the skin reaction is considered a measure of cellular immunity.

E. coli E77156 = experiment: Prophylactic effect against microbial infection in mice; conditions: STD-ddy male mice, 100 μg/mouse s.c. 24 hours before s.c. challenge
Procedure: (2) Prophylactic Effect Against Microbial Infection
Animals: Groups of 20 STD-ddy male mice, 5 weeks of age, were used.
Bacteria: E. coli E77156 which has been maintained in a freezed-culture was used.
Agents: Compounds of the present invention were dissolved or suspended in Dulbecco phosphate-buffered saline (PBS: pH 7.4) at a concentration of 500 μg/ml just before use.
Treatment and Infection: The animals were treated subcutaneously with 0.2 ml of each of the above solution or suspension (equivalent to 100 μg/mouse), followed by the subcutaneous challenge with E. coli 24 hours later.
The effect was judged from the percent survival of the mice seven days after the infection.

Meth-A tumor cells = experiment: Antitumor activity against Meth-A system; conditions: BALB/c mice; Meth-A 1.5×10^6 cells mixed with 100 μg compound in PBS, intradermal; 27th day after inoculation
Procedure: (3) Antitumor Activity Against Meth-A System
A mixture of tumor cells (Meth-A, 1.5×10^6) and 100 μg of Compound 20 of the present invention suspended in PBS was inoculated intradermally in BALB/c mice. […] The value is expressed in terms of the number of tumor-free mice/the number of mice tested.

[2] = inoculum 4.4 × 10^6 cells/mouse
[3] = inoculum 6.17 × 10^6 cells/mouse

Row | SMILES | Skin Reaction 24 Hours (diameter of erythema and induration) [1] [mm] | Skin Reaction 48 Hours (diameter of erythema and induration) [1] [mm] | % Survival 7 days after Infection (E. coli E77156; [3]) [%] | other results
1 | COC(=O)CC[C@@H](NC(=O)[C@H](C)NC(=O)[C@@H](C)O[C@H]1[C@H](O)[C@@H](CO)O[C@@H](SC(C)=O)[C@@H]1NC(C)=O)C(N)=O [Compound 2, 2-Acetamido-1-S-acetyl-2-deoxy-3-O-(D-2-propanoyl-L-alanyl-D-isoglutaminemethyl ester)-1-thio-β-D-glucopyranose] | 21.0 ± 1.0 | 21.0 ± 0.7 |  | 
2 | COC(=O)CC[C@@H](NC(=O)[C@H](C)NC(=O)[C@@H](C)O[C@H]1[C@H](O)[C@@H](CO)O[C@@H](S)[C@@H]1NC(C)=O)C(N)=O [Compound 3, 2-Acetamido-2-deoxy-3-O-(D-2-propanoyl-L-alanyl-D-isoglutaminemethyl ester)-1-thio-β-D-glucopyranose] | 22.1 ± 0.9 | 20.9 ± 0.7 |  | 
3 | CC(=O)NC1C(S)OC(CO)C(O)C1OC(C)C(=O)NC(C)C(=O)NC(CCC(=O)O)C(N)=O [Compound 4, 2-acetamido-2-deoxy-3-O-(D-2-propanoyl-L-alanyl-D-isoglutamine)-1-thio-β-D-glucopyranose] | 23.1 ± 1.2 | 21.0 ± 1.3 |  | % Survival 7 days after Infection (E. coli E77156; [2]): 55%
4 | CCCCS[C@@H]1O[C@H](CO)[C@@H](O)[C@H](O[C@H](C)C(=O)N[C@@H](C)C(=O)N[C@H](CCC(=O)OC)C(N)=O)[C@H]1NC(C)=O [Compound 8, 1-S-n-Butyl 2-acetamido-2-deoxy-3-O-(D-2-propanoyl-L-alanyl-D-isoglutaminemethyl ester)-1-thio-β-D-glucopyranoside] | 14.5 ± 0.7 | 10.3 ± 1.0 |  | 
5 | CCCCCCCCCCCCCCCCSC1OC(CO)C(O)C(OC(C)C(=O)NC(C)C(=O)NC(CCC(=O)OC)C(N)=O)C1NC(C)=O [Compound 9, 1-S-Hexadecanyl 2-acetamido-2-deoxy-3-O-(D-2-propanoyl-L-alanyl-D-isoglutaminemethyl ester)-1-thio-β-D-glucopyranoside] | 13.5 ± 0.8 | 12.4 ± 0.7 |  | 
6 | CCCCSC1OC(CO)C(O)C(OC(C)C(=O)NC(C)C(=O)NC(CCC(=O)O)C(N)=O)C1NC(C)=O [Compound 10, 1-S-n-Butyl 2-acetamido-2-deoxy-3-O-(D-2-propanoyl-L-alanyl-D-isoglutamine)-1-thio-β-D-glucopyranoside] | 17.4 ± 1.7 | 13.6 ± 1.8 |  | 
7 | CCCCCCCCCCCCCCCCSC1OC(CO)C(O)C(OC(C)C(=O)NC(C)C(=O)NC(CCC(=O)O)C(N)=O)C1NC(C)=O [Compound 11, 1-S-Hexadecanyl 2-acetamido-2-deoxy-3-O-(D-2-propanoyl-L-alanyl-D-isoglutamine)-1-thio-β-D-glucopyranoside] | 15.6 ± 1.9 | 11.6 ± 1.4 |  | 
8 | CCCCCCCCCCCCCCCC(=O)S[C@@H]1O[C@H](CO)[C@@H](O)[C@H](O[C@H](C)C(=O)N[C@@H](C)C(=O)N[C@H](CCC(=O)OC)C(N)=O)[C@H]1NC(C)=O [Compound 14, 2-Acetamido-2-deoxy-1-S-hexadecanoyl-3-O-(D-2-propanoyl-L-alanyl-D-isoglutaminemethyl ester)-1-thio-β-D-glucopyranose] | 20.4 ± 0.7 | 21.0 ± 1.4 |  | % Survival 7 days after Infection (E. coli E77156; [2]): 80%
9 | CC(=O)NC1C(S)OC2COC(C)(C)OC2C1OC(C)C(=O)NC(C)C(=O)NC(CCC(=O)O)C(N)=O [Compound 15, 2-Acetamido-2-deoxy-4,6-O-isopropylidene-3-O-(D-2-propanoyl-L-alanyl-D-isoglutamine)-1-thio-β-D-glucopyranose] | 16.9 ± 0.8 | 14.0 ± 1.0 |  | 
10 | CCCCCCCCCCCCCCCC(=O)SC1OC2COC(C)(C)OC2C(OC(C)C(=O)NC(C)C(=O)NC(CCC(=O)O)C(N)=O)C1NC(C)=O [Compound 16, 2-Acetamido-2-deoxy-1-S-hexadecanoyl-4,6-O-isopropylidene-3-O-(D-2-propanoyl-L-alanyl-D-isoglutamine)-1-thio-β-D-glucopyranose] | 11.3 ± 0.8 | 5.6 ± 1.4 |  | 
11 | CCCCCCCCCCCCCCCC(=O)S[C@@H]1O[C@H](CO)[C@@H](O)[C@H](O[C@H](C)C(=O)N[C@@H](C)C(=O)N[C@H](CCC(=O)O)C(N)=O)[C@H]1NC(C)=O [Compound 17, 2-Acetamido-2-deoxy-1-S-hexadecanoyl-3-O-(D-2-propanoyl-L-alanyl-D-isoglutamine)-1-thio-β-D-glucopyranose] | 21.8 ± 0.8 | 23.1 ± 1.1 |  | % Survival 7 days after Infection (E. coli E77156; [2]): 60%
12 | CCCCCCCCCC(=O)S[C@@H]1O[C@H](CO)[C@@H](O)[C@H](O[C@H](C)C(=O)N[C@@H](C)C(=O)N[C@H](CCC(=O)OC)C(N)=O)[C@H]1NC(C)=O [Compound 18, 2-Acetamido-2-deoxy-1-S-decanoyl-3-O-(D-2-propanoyl-L-alanyl-D-isoglutaminemethyl ester)-1-thio-β-D-glucopyranose] |  |  | 90 | 
13 | CCCCCCCCCCCCCCCCCC(=O)S[C@@H]1O[C@H](CO)[C@@H](O)[C@H](O[C@H](C)C(=O)N[C@@H](C)C(=O)N[C@H](CCC(=O)OC)C(N)=O)[C@H]1NC(C)=O [Compound 19, 2-Acetamido-2-deoxy-1-S-octadecanoyl-3-O-(D-2-propanoyl-L-alanyl-D-isoglutaminemethyl ester)-1-thio-β-D-glucopyranose] |  |  | 70 | 
14 | CCCCCCCCCCCCCCCCCCCCCCCCCCCCCC(=O)S[C@@H]1O[C@H](CO)[C@@H](O)[C@H](O[C@H](C)C(=O)N[C@@H](C)C(=O)N[C@H](CCC(=O)OC)C(N)=O)[C@H]1NC(C)=O [Compound 20, 2-Acetamido-2-deoxy-1-S-triacontanoyl-3-O-(D-2-propanoyl-L-alanyl-D-isoglutaminemethyl ester)-1-thio-β-D-glucopyranose] |  |  |  | Suppression of Meth-A growth (number of tumor-free mice/number of mice tested) (Meth-A tumor cells): 5/9
15 | CCCC(=O)S[C@@H]1O[C@H](CO)[C@@H](O)[C@H](O[C@H](C)C(=O)N[C@@H](C)C(=O)N[C@H](CCC(=O)OC)C(N)=O)[C@H]1NC(C)=O [Compound 21, 2-Acetamido-2-deoxy-1-S-n-butanoyl-3-O-(D-2-propanoyl-L-alanyl-D-isoglutaminemethyl ester)-1-thio-β-D-glucopyranose] |  |  | 50 | 
16 | CCCCCCCCCCCC(=O)S[C@@H]1O[C@H](CO)[C@@H](O)[C@H](O[C@H](C)C(=O)N[C@@H](C)C(=O)N[C@H](CCC(=O)O)C(N)=O)[C@H]1NC(C)=O [Compound 22, 2-Acetamido-2-deoxy-1-S-dodecanoyl-3-O-(D-2-propanoyl-L-alanyl-D-isoglutamine)-1-thio-β-D-glucopyranose] |  |  | 55 | 
17 | CCCCCCCCCCCCCC(=O)SC1OC(CO)C(O)C(OC(C)C(=O)NC(C)C(=O)NC(CCC(=O)O)C(N)=O)C1NC(C)=O [Compound 23, 2-Acetamido-2-deoxy-1-S-tetradecanoyl-3-O-(D-2-propanoyl-L-alanyl-D-isoglutamine)-1-thio-β-D-glucopyranose] |  |  | 60 | 
18 | CCCCCCCCCCCCCC(=O)S[C@@H]1O[C@H](CO)[C@@H](O)[C@H](O[C@H](C)C(=O)N[C@@H](C)C(=O)N[C@H](CCC(=O)OC)C(N)=O)[C@H]1NC(C)=O [Compound 24, 2-Acetamido-2-deoxy-1-S-tetradecanoyl-3-O-(D-2-propanoyl-L-alanyl-D-isoglutaminemethyl ester)-1-thio-β-D-glucopyranose] |  |  | 65 | 
19 | CCCCCCCCCCCCCCCCCCCC(=O)S[C@@H]1O[C@H](CO)[C@@H](O)[C@H](O[C@H](C)C(=O)N[C@@H](C)C(=O)N[C@H](CCC(=O)O)C(N)=O)[C@H]1NC(C)=O [Compound 25, 2-Acetamido-2-deoxy-1-S-eicosanoyl-3-O-(D-2-propanoyl-L-alanyl-D-isoglutamine)-1-thio-β-D-glucopyranose] |  |  |  | % Survival 7 days after Infection (E. coli E77156; inoculum 6.88 × 10^6 cells/mouse): 55%
